# Results from patent publication US20250171420A1 (Monte Rosa Therapeutics, Inc., priority 2022, published 2025).
# How the values were obtained:
# CRBN/DDB1 = CRBN/DDB1 (Homo sapiens, UniProt Q96SW2); experiment: HTRF binding assay (displacement of Cy5-thalidomide probe from CRBN/DDB1); conditions: CRBN/DDB1 2.5 nM, Cy5-Thalidomide 100 nM, 30 min; geometric mean; read-out: HTRF_Thali_Disp_DR_geo_IC50
# Description: Binding of test compounds to CRBN/DDB1 was monitored in an HTRF assay using 1-[5-({2-[2-(2-{[2-(2,6-dioxopiperidin-3-yl)-1,3-dioxo-2,3-dihydro-1H-isoindol-4-yl]oxy}acetamido)ethoxy]ethyl}carbamoyl)pentyl]-3,3-dimethyl-2-[(1E,3E)-5-[(2E)-1,3,3-trimethyl-5-sulfo-2,3-dihydro-1H-indol-2-ylidene]penta-1,3-dien-1-yl]-3H-indol-1-ium-5-sulfonate as a fluorescent probe. In this assay, compounds displace the fluorescently labeled thalidomide-based probe bound to CRBN and fluorescence is monitored with increasing compound concentration. Assays were conducted in Greiner white 384 well HiBase plates (Cat. No 784075-25) in 10 μL total volume. A one pot detection solution of CRBN/DDB1 (2.5 nM), anti-His Terbium Cryptate Gold (1×, PerkinElmer Cat. #: 61HI2TLB), and Cy5-Thalidomide (100 nM, Tenova Cat.: T52461) was prepared in 20 mM HEPES, 20 mM NaCl, 0.2 mM TCEP, 0.2 mM EDTA, and 0.005% Tween20 was dispensed to each assay plate. Test compounds were stored in dry, ambient temperatures at 10 mM. A 10-point, 1:3 dilution series was prepared from 10 mM stock concentrations in Echo-compatible LDV plates. 10 nL of each compound dilution series was dispensed into assays wells using an Echo 650 (Labcyte inc. USA). 10 nL of 10 mM lenalidomide (Selleckchem Cat no. S1029) was transferred into the active-control wells for the assay and 10 nL of DMSO was transferred into the negative control wells. The assay was then allowed to incubate for 30 min at ambient temperature after transferring the test compounds. Plate measurements were taken on a Pherastar FSX (BMG Labtech, Germany) using the HTRF Red filter (Ex. 337 nm, em1: 620 nm, em2: 665 nm) (Flashes: 50, Integration time: 60-400 μs, Z-height: 10 mm, Ratio-multiplier: 10,000). Analysis, HTRF ratio and IC50 values were derived using KNIME analytics (KNIME Zurich) transformation and fitting within Collaborative Drug Discovery (Collaborative Drug Discovery USA) using a 4-parameter logistic fit. HTRF ratio calculation was performed using the following formula: […]
# where Y represents the HTRF ratio response (as defined previously), X the compound concentration in μM, Ymin the minimum response plateau, Ymax the maximum response plateau, IC50 the concentration of agonist that gives a response half way between Ymin and Ymax and HillSlope the steepness of the family of curves. No fitting model constraints was applied on Ymin, or Ymax whilst IC50>0 and −0.5>HillSlope>−3
# Ki values were derived from the geometric mean of the IC50 values using the Cheng-Prusoff transformation:
# where [L] represents the concentration of fluorescent probe in μM, Kd the affinity (binding constant) of the fluorescent probe in units of μM and IC50 the concentration of agonist that gives a response halfway between Ymin and Ymax (as described in 1.2.1)
# Analysis and IC50 values were derived using KNIME analytics (KNIME, Zurich) transformation and fitting within Collaborative Drug Discovery (Collaborative Drug Discovery, USA) as described in 1.2.1. Ki values were derived from the geometric mean of the IC50 values using the Cheng-Prusoff transformation as described in 2.2.2. Data was visualized in GraphPad Prism 8.1.2 (GraphPad, USA) and reported as mean and standard deviation. Microsoft Office Excel 2012 (Redmond, WA) was used for calculation of mean and standard deviation.
# IC50 data are reported in Table 3 for compounds in Table 1. In Table 3 below, According to the code, A represents a IC50 value of ≤0.1 μM, B represents a IC50 value>0.1 μM and ≤1 μM, C represents an IC50 value>1 μM.
# CK1α = biological target: T1, CK1α (Homo sapiens, UniProt P48729); experiment: CK1α NanoBit Assay (HiBiT-tagged CSNK1A1, HEK293 clonal lines); format: cell-based; conditions: HEK293 HiBiT-CSNK1A1/LgBiT cells, 24 h incubation
# T1 construct: HEK293 clonal lines with CRISPR KI HiBiT tag on CSNK1A1
# T1 sequence (P48729 whole entry): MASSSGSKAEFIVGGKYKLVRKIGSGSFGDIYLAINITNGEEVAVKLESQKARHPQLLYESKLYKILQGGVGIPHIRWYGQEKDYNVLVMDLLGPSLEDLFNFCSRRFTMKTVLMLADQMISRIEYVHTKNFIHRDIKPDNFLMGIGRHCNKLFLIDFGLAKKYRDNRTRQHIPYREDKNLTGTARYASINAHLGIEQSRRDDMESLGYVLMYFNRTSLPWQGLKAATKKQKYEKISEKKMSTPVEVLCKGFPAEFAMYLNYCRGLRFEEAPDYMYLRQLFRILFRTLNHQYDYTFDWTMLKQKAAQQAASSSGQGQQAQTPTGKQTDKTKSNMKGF
# T1 sequence (Q96SW2 whole entry, further chain): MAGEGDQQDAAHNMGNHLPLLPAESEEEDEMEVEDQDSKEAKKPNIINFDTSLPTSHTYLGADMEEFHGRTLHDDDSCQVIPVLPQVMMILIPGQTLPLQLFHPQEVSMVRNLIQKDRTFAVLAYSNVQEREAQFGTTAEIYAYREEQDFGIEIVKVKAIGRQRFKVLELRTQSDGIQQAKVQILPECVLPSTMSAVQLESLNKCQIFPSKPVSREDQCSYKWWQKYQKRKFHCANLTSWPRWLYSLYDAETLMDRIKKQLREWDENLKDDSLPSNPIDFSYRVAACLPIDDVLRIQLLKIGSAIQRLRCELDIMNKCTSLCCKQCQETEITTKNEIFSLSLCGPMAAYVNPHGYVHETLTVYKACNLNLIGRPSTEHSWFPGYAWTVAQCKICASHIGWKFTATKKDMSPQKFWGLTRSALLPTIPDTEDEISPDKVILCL
# T1 sequence (Q16531 2-1140 partner limits assumed): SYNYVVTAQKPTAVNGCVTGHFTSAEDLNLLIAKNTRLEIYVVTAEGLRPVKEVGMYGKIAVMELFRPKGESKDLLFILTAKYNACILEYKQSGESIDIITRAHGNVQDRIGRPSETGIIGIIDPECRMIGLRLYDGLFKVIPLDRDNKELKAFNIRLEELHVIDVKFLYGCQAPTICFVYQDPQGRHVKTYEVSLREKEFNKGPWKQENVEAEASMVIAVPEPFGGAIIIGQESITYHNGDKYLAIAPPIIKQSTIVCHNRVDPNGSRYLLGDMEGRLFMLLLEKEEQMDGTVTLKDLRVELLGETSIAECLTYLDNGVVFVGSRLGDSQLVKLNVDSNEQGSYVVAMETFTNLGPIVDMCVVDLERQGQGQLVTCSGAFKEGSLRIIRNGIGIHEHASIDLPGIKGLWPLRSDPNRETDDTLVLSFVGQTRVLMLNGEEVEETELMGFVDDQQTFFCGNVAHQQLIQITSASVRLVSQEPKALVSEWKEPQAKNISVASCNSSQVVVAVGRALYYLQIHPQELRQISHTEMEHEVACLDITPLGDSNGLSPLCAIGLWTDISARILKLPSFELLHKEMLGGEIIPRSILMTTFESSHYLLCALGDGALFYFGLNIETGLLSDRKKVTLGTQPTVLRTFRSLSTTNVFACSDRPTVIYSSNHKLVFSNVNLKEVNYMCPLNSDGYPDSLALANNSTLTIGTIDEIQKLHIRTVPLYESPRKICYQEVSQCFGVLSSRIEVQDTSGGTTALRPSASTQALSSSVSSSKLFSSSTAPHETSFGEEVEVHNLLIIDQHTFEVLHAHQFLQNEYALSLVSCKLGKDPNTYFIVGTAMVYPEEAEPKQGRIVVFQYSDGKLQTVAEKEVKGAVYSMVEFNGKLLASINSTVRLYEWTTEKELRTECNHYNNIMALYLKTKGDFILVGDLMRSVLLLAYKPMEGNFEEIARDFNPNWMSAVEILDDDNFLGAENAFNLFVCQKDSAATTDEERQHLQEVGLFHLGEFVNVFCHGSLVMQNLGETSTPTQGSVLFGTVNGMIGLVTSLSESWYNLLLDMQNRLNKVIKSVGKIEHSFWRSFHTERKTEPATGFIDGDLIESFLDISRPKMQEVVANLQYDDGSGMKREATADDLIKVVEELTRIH
# In short: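 HEK293 clones carrying a CRISPR knock-in HiBiT tag on CSNK1A1 and stably expressing LgBiT are treated with compound for 24 hours at 37° C, 5% CO2, then read by luminescence. Response is normalized as 100*(S−N)/(P−N) against plate negative and positive controls, and DC50 values are derived.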
# Chain of CRBN/DDB1 (Q96SW2 whole entry, species assumed): as the sequence (Q96SW2 whole entry, further chain) above
# Chain of CRBN/DDB1 (Q16531 whole entry partner, species assumed): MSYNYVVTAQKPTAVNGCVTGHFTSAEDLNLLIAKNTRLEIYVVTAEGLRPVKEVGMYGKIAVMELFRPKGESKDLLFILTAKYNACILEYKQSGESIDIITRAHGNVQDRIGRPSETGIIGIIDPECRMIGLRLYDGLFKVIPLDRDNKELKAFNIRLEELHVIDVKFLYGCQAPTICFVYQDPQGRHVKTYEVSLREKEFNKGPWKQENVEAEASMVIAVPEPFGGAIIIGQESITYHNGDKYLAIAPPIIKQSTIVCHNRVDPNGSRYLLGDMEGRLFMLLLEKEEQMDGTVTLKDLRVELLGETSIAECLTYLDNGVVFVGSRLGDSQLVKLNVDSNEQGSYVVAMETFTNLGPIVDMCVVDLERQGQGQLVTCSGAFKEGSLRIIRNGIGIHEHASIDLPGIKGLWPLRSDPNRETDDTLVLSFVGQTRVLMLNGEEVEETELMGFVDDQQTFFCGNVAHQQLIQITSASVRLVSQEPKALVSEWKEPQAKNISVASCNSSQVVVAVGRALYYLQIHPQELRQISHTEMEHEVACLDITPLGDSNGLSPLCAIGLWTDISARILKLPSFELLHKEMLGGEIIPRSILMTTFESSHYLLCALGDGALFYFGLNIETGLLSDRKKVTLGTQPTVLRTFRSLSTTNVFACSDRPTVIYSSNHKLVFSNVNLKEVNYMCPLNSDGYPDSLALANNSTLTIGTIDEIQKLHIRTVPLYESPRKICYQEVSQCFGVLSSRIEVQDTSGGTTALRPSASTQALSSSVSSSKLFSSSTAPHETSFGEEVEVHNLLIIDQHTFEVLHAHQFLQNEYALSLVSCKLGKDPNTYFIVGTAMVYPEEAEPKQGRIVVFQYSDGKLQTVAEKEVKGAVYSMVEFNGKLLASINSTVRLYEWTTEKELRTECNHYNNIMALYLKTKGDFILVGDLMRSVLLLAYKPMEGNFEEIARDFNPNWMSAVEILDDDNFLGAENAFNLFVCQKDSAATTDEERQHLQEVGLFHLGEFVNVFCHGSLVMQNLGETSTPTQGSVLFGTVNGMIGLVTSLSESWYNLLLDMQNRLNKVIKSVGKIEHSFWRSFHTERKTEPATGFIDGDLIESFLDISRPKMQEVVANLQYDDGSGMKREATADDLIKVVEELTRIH
SMILES,IC50 (CRBN/DDB1) [nM],DC50 (CK1α) [µM]
"O=C1CCC(N2Cc3cc(NC(=O)N4c5ccccc5C[C@H]4CN4CCC4)ccc3C2=O)C(=O)N1 (stereo partly drawn) [Compound 315, (2S)-2-(azetidin-1-ylmethyl)-N-(2-(2,6-dioxopiperidin-3-yl)-1-oxoisoindolin-5-yl)indoline-1-carboxamide]",100 to 1000,0.1 to 1
"O=C1CCC(N2Cc3cc(NC(=O)N4c5ccccc5C[C@H]4COCC(F)(F)F)ccc3C2=O)C(=O)N1 (stereo partly drawn) [Compound 316, (2S)—N-(2-(2,6-dioxopiperidin-3-yl)-1-oxoisoindolin-5-yl)-2-((2,2,2-trifluoroethoxy)methyl)indoline-1-carboxamide]",100 to 1000,< 0.1
"O=C1CCC(N2Cc3cc(NC(=O)N4CC5(CCOC5)c5ccccc54)ccc3C2=O)C(=O)N1 (centres unmarked) [Compound 317, N-(2-(2,6-dioxopiperidin-3-yl)-1-oxoisoindolin-5-yl)-4,5-dihydro-2H-spiro[furan-3,3′-indoline]-1′-carboxamide]",100 to 1000,< 0.1
"COC[C@@H]1Cc2cc(C(F)(F)F)ccc2N1C(=O)Nc1ccc2c(c1)CN(C1CCC(=O)NC1=O)C2=O (stereo partly drawn) [Compound 318, (2S)—N-(2-(2,6-dioxopiperidin-3-yl)-1-oxoisoindolin-5-yl)-2-(methoxymethyl)-5-(trifluoromethyl)indoline-1-carboxamide]",100 to 1000,< 0.1
"COC[C@H]1CN(C(=O)Nc2ccc3c(c2)CN(C2CCC(=O)NC2=O)C3=O)c2ccc(C(F)(F)F)cc21 (stereo partly drawn) [Compound 319, (3R)—N-(2-(2,6-dioxopiperidin-3-yl)-1-oxoisoindolin-5-yl)-3-(methoxymethyl)-5-(trifluoromethyl)indoline-1-carboxamide]",100 to 1000,< 0.1
"COCC1C2c3ccccc3N(C(=O)Nc3ccc4c(c3)CN(C3CCC(=O)NC3=O)C4=O)C12 (centres unmarked) [Compound 320, N-(2-(2,6-dioxopiperidin-3-yl)-1-oxoisoindolin-5-yl)-1-(methoxymethyl)-1a, 6b-dihydrocyclopropa[b]indole-2(1H)-carboxamide]",100 to 1000,< 0.1
"COCC1Cc2cc(C(F)(F)F)ncc2N1C(=O)Nc1ccc2c(c1)CN(C1CCC(=O)NC1=O)C2=O (centres unmarked) [Compound 321, N-(2-(2,6-dioxopiperidin-3-yl)-1-oxoisoindolin-5-yl)-2-(methoxymethyl)-5-(trifluoromethyl)-2,3-dihydro-1H-pyrrolo[2,3-c]pyridine-1-carboxamide]",100 to 1000,< 0.1
"O=C1CCC(N2Cc3cc(NC(=O)N4c5ccccc5CC45COC5)ccc3C2=O)C(=O)N1 (centres unmarked) [Compound 322, N-(2-(2,6-dioxopiperidin-3-yl)-1-oxoisoindolin-5-yl)spiro[indoline-2,3′-oxetane]-1-carboxamide]",100 to 1000,< 0.1
"CN(C)C[C@@H]1Cc2ccccc2N1C(=O)Nc1ccc2c(c1)CN(C1CCC(=O)NC1=O)C2=O (stereo partly drawn) [Compound 323, (2S)-2-((dimethylamino)methyl)-N-(2-(2,6-dioxopiperidin-3-yl)-1-oxoisoindolin-5-yl)indoline-1-carboxamide]",100 to 1000,0.1 to 1
"COCC1c2ccc(C(F)(F)F)cc2CN1C(=O)Nc1ccc2c(c1)CN(C1CCC(=O)NC1=O)C2=O (centres unmarked) [Compound 324, N-(2-(2,6-dioxopiperidin-3-yl)-1-oxoisoindolin-5-yl)-1-(methoxymethyl)-5-(trifluoromethyl)isoindoline-2-carboxamide]",100 to 1000,< 0.1
"COC[C@@H]1Cc2c(cccc2C(F)(F)F)N1C(=O)Nc1ccc2c(c1)CN(C1CCC(=O)NC1=O)C2=O (stereo partly drawn) [Compound 325, (2S)—N-(2-(2,6-dioxopiperidin-3-yl)-1-oxoisoindolin-5-yl)-2-(methoxymethyl)-4-(trifluoromethyl)indoline-1-carboxamide]",100 to 1000,< 0.1
"CNC(=O)[C@@H]1Cc2ccccc2N1C(=O)Nc1ccc2c(c1)CN(C1CCC(=O)NC1=O)C2=O (stereo partly drawn) [Compound 326, (2S)—N^1-(2-(2,6-dioxopiperidin-3-yl)-1-oxoisoindolin-5-yl)-N^2-methylindoline-1,2-dicarboxamide]",100 to 1000,0.1 to 1

# Continued, values first:
IC50 (CRBN/DDB1) [nM],DC50 (CK1α) [µM],SMILES
100 to 1000,0.1 to 1,"CN(C)C(=O)[C@@H]1Cc2ccccc2N1C(=O)Nc1ccc2c(c1)CN(C1CCC(=O)NC1=O)C2=O (stereo partly drawn) [Compound 327, (2S)-N1-(2-(2,6-dioxopiperidin-3-yl)-1-oxoisoindolin-5-yl)-N2,N2-dimethylindoline-1,2-dicarboxamide]"
100 to 1000,< 0.1,"COC[C@@H]1CN(C(=O)Nc2ccc3c(c2)CN(C2CCC(=O)NC2=O)C3=O)c2ccccc21 (stereo partly drawn) [Compound 328, (3S)—N-(2-(2,6-dioxopiperidin-3-yl)-1-oxoisoindolin-5-yl)-3-(methoxymethyl)indoline-1-carboxamide]"
100 to 1000,< 0.1,"COCc1ccc2c(c1)CCN2C(=O)Nc1ccc2c(c1)CN(C1CCC(=O)NC1=O)C2=O (centres unmarked) [Compound 330, N-(2-(2,6-dioxopiperidin-3-yl)-1-oxoisoindolin-5-yl)-5-(methoxymethyl)indoline-1-carboxamide]"
100 to 1000,< 0.1,"COCC1c2ccc(C)cc2CN1C(=O)Nc1ccc2c(c1)CN(C1CCC(=O)NC1=O)C2=O (centres unmarked) [Compound 331, N-(2-(2,6-dioxopiperidin-3-yl)-1-oxoisoindolin-5-yl)-1-(methoxymethyl)-5-methylisoindoline-2-carboxamide]"
100 to 1000,< 0.1,"COCC1c2cc(C3CC3)ccc2CN1C(=O)Nc1ccc2c(c1)CN(C1CCC(=O)NC1=O)C2=O (centres unmarked) [Compound 333, 6-cyclopropyl-N-(2-(2,6-dioxopiperidin-3-yl)-1-oxoisoindolin-5-yl)-1-(methoxymethyl)isoindoline-2-carboxamide]"
100 to 1000,< 0.1,"COCC1c2cc(C)ccc2CN1C(=O)Nc1ccc2c(c1)CN(C1CCC(=O)NC1=O)C2=O (centres unmarked) [Compound 336, N-(2-(2,6-dioxopiperidin-3-yl)-1-oxoisoindolin-5-yl)-1-(methoxymethyl)-6-methylisoindoline-2-carboxamide]"
100 to 1000,< 0.1,"O=C1CCC(N2Cc3cc(NC(=O)N4CCc5c(C6COC6)cccc54)ccc3C2=O)C(=O)N1 (centres unmarked) [Compound 342, N-(2-(2,6-dioxopiperidin-3-yl)-1-oxoisoindolin-5-yl)-4-(oxetan-3-yl)indoline-1-carboxamide]"
100 to 1000,< 0.1,"COC(C)c1cccc2c1CCN2C(=O)Nc1ccc2c(c1)CN(C1CCC(=O)NC1=O)C2=O (centres unmarked) [Compound 343, N-(2-(2,6-dioxopiperidin-3-yl)-1-oxoisoindolin-5-yl)-4-(1-methoxyethyl)indoline-1-carboxamide]"
< 100,< 0.1,"O=C1CCC(N2Cc3cc(NC(=O)N4CCc5cc(C6CCOC6)ccc54)ccc3C2=O)C(=O)N1 (centres unmarked) [Compound 345, N-(2-(2,6-dioxopiperidin-3-yl)-1-oxoisoindolin-5-yl)-5-(tetrahydrofuran-3-yl)indoline-1-carboxamide]"
< 100,< 0.1,"O=C1CCC(N2Cc3cc(NC(=O)N4CCc5cc(C6COC6)ccc54)ccc3C2=O)C(=O)N1 (centres unmarked) [Compound 346, N-(2-(2,6-dioxopiperidin-3-yl)-1-oxoisoindolin-5-yl)-5-(oxetan-3-yl)indoline-1-carboxamide]"
